Results: PubChem BioAssay (NCI)
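Each compound was tested at five concentrations against cells in 96-well plates for 48 hours. Definition used: TGI = concentration required for complete inhibition of growth.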

How the values were obtained:
Assay in all cases: NCI-60 cell line screen, 48 h
COLO 205 colon = system: COLO 205 colon
SN12C renal = system: SN12C renal
EKVX NSCLC = system: EKVX NSCLC
A498 renal = system: A498 renal
DU-145 prostate = system: DU-145 prostate
UACC-257 melanoma = system: UACC-257 melanoma
HOP-62 NSCLC = system: HOP-62 NSCLC
HCC-2998 colon = system: HCC-2998 colon
RXF 393 renal = system: RXF 393 renal
SK-OV-3 ovarian = system: SK-OV-3 ovarian
RPMI-8226 leukemia = system: RPMI-8226 leukemia
SF-539 CNS = system: SF-539 CNS
MOLT-4 leukemia = system: MOLT-4 leukemia
M14 melanoma = system: M14 melanoma
786-0 renal = system: 786-0 renal
NCI/ADR-RES ovarian = system: NCI/ADR-RES ovarian
TK-10 renal = system: TK-10 renal
OVCAR-5 ovarian = system: OVCAR-5 ovarian
SNB-19 CNS = system: SNB-19 CNS
UO-31 renal = system: UO-31 renal
IGROV1 ovarian = system: IGROV1 ovarian
CCRF-CEM leukemia = system: CCRF-CEM leukemia
HOP-92 NSCLC = system: HOP-92 NSCLC
SF-295 CNS = system: SF-295 CNS
HS 578T breast = system: HS 578T breast
ACHN renal = system: ACHN renal
MCF7 breast = system: MCF7 breast
HCT-116 colon = system: HCT-116 colon
PC-3 prostate = system: PC-3 prostate
SK-MEL-28 melanoma = system: SK-MEL-28 melanoma
SK-MEL-5 melanoma = system: SK-MEL-5 melanoma
OVCAR-4 ovarian = system: OVCAR-4 ovarian
SF-268 CNS = system: SF-268 CNS
OVCAR-8 ovarian = system: OVCAR-8 ovarian
T-47D breast = system: T-47D breast
SNB-75 CNS = system: SNB-75 CNS
NCI-H226 lung = system: NCI-H226 lung
SW-620 colon = system: SW-620 colon
OVCAR-3 ovarian = system: OVCAR-3 ovarian
A549 NSCLC = system: A549 NSCLC
NCI-H23 lung = system: NCI-H23 lung
MDA-MB-435 = system: MDA-MB-435
LOX IMVI melanoma = system: LOX IMVI melanoma
MDA-N = system: MDA-N
UACC-62 melanoma = system: UACC-62 melanoma
HCT-15 colon = system: HCT-15 colon
MDA-MB-231 breast = system: MDA-MB-231 breast
SK-MEL-2 melanoma = system: SK-MEL-2 melanoma
CAKI-1 renal = system: CAKI-1 renal
BT-549 breast = system: BT-549 breast
KM12 colon = system: KM12 colon
K-562 leukemia = system: K-562 leukemia
HT29 colon = system: HT29 colon
U251 CNS = system: U251 CNS
NCI-H460 lung = system: NCI-H460 lung
NCI-H522 lung = system: NCI-H522 lung
MALME-3M melanoma = system: MALME-3M melanoma
HL-60(TB) leukemia = system: HL-60(TB) leukemia
SR leukemia = system: SR leukemia

## COC(=O)[C@H](Cc1ccccc1)NC(=O)N(CCC#N)CCN(C(=O)N[C@@H](Cc1ccccc1)C(=O)OC)c1ccccc1
COLO 205 colon
  TGI: 56.2 µM
SN12C renal
  TGI: 89 µM
EKVX NSCLC
  TGI: 73.2 µM
A498 renal
  TGI: 39.8 µM
DU-145 prostate
  TGI: 74.5 µM
UACC-257 melanoma
  TGI: 37.5 µM
HOP-62 NSCLC
  TGI: > 100 µM
HCC-2998 colon
  TGI: > 100 µM
RXF 393 renal
  TGI: 37.7 µM
SK-OV-3 ovarian
  TGI: > 100 µM
RPMI-8226 leukemia
  TGI: 43.9 µM
SF-539 CNS
  TGI: 41.1 µM
MOLT-4 leukemia
  TGI: 41.3 µM
M14 melanoma
  TGI: 55.1 µM
786-0 renal
  TGI: 50.8 µM
NCI/ADR-RES ovarian
  TGI: > 100 µM
TK-10 renal
  TGI: 41.6 µM
OVCAR-5 ovarian
  TGI: > 100 µM
SNB-19 CNS
  TGI: > 100 µM
UO-31 renal
  TGI: 31.9 µM
IGROV1 ovarian
  TGI: 42.9 µM
CCRF-CEM leukemia
  TGI: 87 µM
HOP-92 NSCLC
  TGI: 39.4 µM
SF-295 CNS
  TGI: > 100 µM
HS 578T breast
  TGI: > 100 µM
ACHN renal
  TGI: 33.9 µM
MCF7 breast
  TGI: > 100 µM
HCT-116 colon
  TGI: 82.5 µM
PC-3 prostate
  TGI: > 100 µM
SK-MEL-28 melanoma
  TGI: 33.9 µM
SK-MEL-5 melanoma
  TGI: 46.2 µM
OVCAR-4 ovarian
  TGI: 69.2 µM
SF-268 CNS
  TGI: 45.6 µM
OVCAR-8 ovarian
  TGI: > 100 µM
T-47D breast
  TGI: 41.6 µM
SNB-75 CNS
  TGI: 45.3 µM
NCI-H226 lung
  TGI: 89 µM
SW-620 colon
  TGI: > 100 µM
OVCAR-3 ovarian
  TGI: 43.4 µM
A549 NSCLC
  TGI: > 100 µM
NCI-H23 lung
  TGI: 93.6 µM
MDA-MB-435
  TGI: 39.2 µM
LOX IMVI melanoma
  TGI: 41.3 µM
MDA-N
  TGI: 33.8 µM
UACC-62 melanoma
  TGI: 13.6 µM
HCT-15 colon
  TGI: > 100 µM
MDA-MB-231 breast
  TGI: 71 µM
SK-MEL-2 melanoma
  TGI: 39.3 µM
CAKI-1 renal
  TGI: 41 µM
BT-549 breast
  TGI: > 100 µM
KM12 colon
  TGI: > 100 µM

## COc1ccc(NC(C)c2ccncc2)cc1 (stereo unspecified)
COLO 205 colon
  TGI: > 100 µM
SN12C renal
  TGI: > 100 µM
EKVX NSCLC
  TGI: > 100 µM
A498 renal
  TGI: > 100 µM
DU-145 prostate
  TGI: > 100 µM
K-562 leukemia
  TGI: > 100 µM
HOP-62 NSCLC
  TGI: > 100 µM
HCC-2998 colon
  TGI: > 100 µM
RXF 393 renal
  TGI: > 100 µM
SK-OV-3 ovarian
  TGI: 65 µM
HT29 colon
  TGI: > 100 µM
RPMI-8226 leukemia
  TGI: > 100 µM
SF-539 CNS
  TGI: > 100 µM
MOLT-4 leukemia
  TGI: > 100 µM
M14 melanoma
  TGI: > 100 µM
786-0 renal
  TGI: > 100 µM
NCI/ADR-RES ovarian
  TGI: > 100 µM
TK-10 renal
  TGI: > 100 µM
OVCAR-5 ovarian
  TGI: > 100 µM
SNB-19 CNS
  TGI: > 100 µM
UO-31 renal
  TGI: > 100 µM
U251 CNS
  TGI: > 100 µM
CCRF-CEM leukemia
  TGI: > 100 µM
HOP-92 NSCLC
  TGI: > 100 µM
SF-295 CNS
  TGI: > 100 µM
HS 578T breast
  TGI: > 100 µM
ACHN renal
  TGI: > 100 µM
MCF7 breast
  TGI: > 100 µM
HCT-116 colon
  TGI: > 100 µM
PC-3 prostate
  TGI: > 100 µM
SK-MEL-28 melanoma
  TGI: > 100 µM
SK-MEL-5 melanoma
  TGI: > 100 µM
OVCAR-4 ovarian
  TGI: > 100 µM
SF-268 CNS
  TGI: > 100 µM
OVCAR-8 ovarian
  TGI: > 100 µM
T-47D breast
  TGI: > 100 µM
SNB-75 CNS
  TGI: > 100 µM
NCI-H226 lung
  TGI: > 100 µM
SW-620 colon
  TGI: > 100 µM
OVCAR-3 ovarian
  TGI: > 100 µM
A549 NSCLC
  TGI: > 100 µM
NCI-H460 lung
  TGI: > 100 µM
NCI-H23 lung
  TGI: > 100 µM
MDA-MB-435
  TGI: > 100 µM
NCI-H522 lung
  TGI: > 100 µM
LOX IMVI melanoma
  TGI: > 100 µM
MDA-N
  TGI: > 100 µM
HCT-15 colon
  TGI: > 100 µM
MALME-3M melanoma
  TGI: > 100 µM
MDA-MB-231 breast
  TGI: > 100 µM
SK-MEL-2 melanoma
  TGI: > 100 µM
CAKI-1 renal
  TGI: > 100 µM
BT-549 breast
  TGI: > 100 µM
KM12 colon
  TGI: > 100 µM

## CCOP(=O)(OCC)OC1CC(n2cc(C)c(=O)n(C)c2=O)OC1CO[Si](C)(C)C(C)(C)C (stereo unspecified)
COLO 205 colon
  TGI: > 100 µM
SN12C renal
  TGI: > 100 µM
EKVX NSCLC
  TGI: 68.4 µM
HL-60(TB) leukemia
  TGI: 57.4 µM
DU-145 prostate
  TGI: > 100 µM
UACC-257 melanoma
  TGI: > 100 µM
K-562 leukemia
  TGI: > 100 µM
HOP-62 NSCLC
  TGI: > 100 µM
HCC-2998 colon
  TGI: > 100 µM
RXF 393 renal
  TGI: > 100 µM
SK-OV-3 ovarian
  TGI: > 100 µM
HT29 colon
  TGI: > 100 µM
RPMI-8226 leukemia
  TGI: > 100 µM
SF-539 CNS
  TGI: > 100 µM
MOLT-4 leukemia
  TGI: > 100 µM
M14 melanoma
  TGI: > 100 µM
SR leukemia
  TGI: > 100 µM
786-0 renal
  TGI: > 100 µM
NCI/ADR-RES ovarian
  TGI: > 100 µM
TK-10 renal
  TGI: > 100 µM
OVCAR-5 ovarian
  TGI: > 100 µM
SNB-19 CNS
  TGI: > 100 µM
UO-31 renal
  TGI: 7.15 µM
IGROV1 ovarian
  TGI: > 100 µM
U251 CNS
  TGI: > 100 µM
CCRF-CEM leukemia
  TGI: > 100 µM
SF-295 CNS
  TGI: > 100 µM
HS 578T breast
  TGI: > 100 µM
ACHN renal
  TGI: > 100 µM
MCF7 breast
  TGI: > 100 µM
HCT-116 colon
  TGI: > 100 µM
PC-3 prostate
  TGI: > 100 µM
SK-MEL-28 melanoma
  TGI: > 100 µM
SK-MEL-5 melanoma
  TGI: > 100 µM
OVCAR-4 ovarian
  TGI: > 100 µM
SF-268 CNS
  TGI: > 100 µM
OVCAR-8 ovarian
  TGI: > 100 µM
T-47D breast
  TGI: > 100 µM
SNB-75 CNS
  TGI: > 100 µM
NCI-H226 lung
  TGI: > 100 µM
SW-620 colon
  TGI: > 100 µM
OVCAR-3 ovarian
  TGI: > 100 µM
A549 NSCLC
  TGI: > 100 µM
NCI-H460 lung
  TGI: > 100 µM
NCI-H23 lung
  TGI: > 100 µM
MDA-MB-435
  TGI: > 100 µM
NCI-H522 lung
  TGI: > 100 µM
LOX IMVI melanoma
  TGI: > 100 µM
MDA-N
  TGI: > 100 µM
UACC-62 melanoma
  TGI: > 100 µM
HCT-15 colon
  TGI: > 100 µM
MALME-3M melanoma
  TGI: > 100 µM
SK-MEL-2 melanoma
  TGI: > 100 µM
CAKI-1 renal
  TGI: > 100 µM
BT-549 breast
  TGI: > 100 µM
KM12 colon
  TGI: > 100 µM

## CCOC(=O)C(NC(=O)Nc1ccc(Cl)cc1)(OC)C(F)(F)F (stereo unspecified)
COLO 205 colon
  TGI: > 100 µM
SN12C renal
  TGI: > 100 µM
EKVX NSCLC
  TGI: > 100 µM
HL-60(TB) leukemia
  TGI: > 100 µM
A498 renal
  TGI: > 100 µM
UACC-257 melanoma
  TGI: > 100 µM
HCC-2998 colon
  TGI: 32.7 µM
RXF 393 renal
  TGI: > 100 µM
SK-OV-3 ovarian
  TGI: > 100 µM
HT29 colon
  TGI: > 100 µM
SF-539 CNS
  TGI: > 100 µM
M14 melanoma
  TGI: > 100 µM
SR leukemia
  TGI: > 100 µM
786-0 renal
  TGI: > 100 µM
NCI/ADR-RES ovarian
  TGI: > 100 µM
TK-10 renal
  TGI: > 100 µM
OVCAR-5 ovarian
  TGI: > 100 µM
SNB-19 CNS
  TGI: > 100 µM
IGROV1 ovarian
  TGI: > 100 µM
U251 CNS
  TGI: > 100 µM
HS 578T breast
  TGI: > 100 µM
ACHN renal
  TGI: > 100 µM
HCT-116 colon
  TGI: > 100 µM
PC-3 prostate
  TGI: > 100 µM
SK-MEL-28 melanoma
  TGI: > 100 µM
SK-MEL-5 melanoma
  TGI: > 100 µM
SF-268 CNS
  TGI: > 100 µM
OVCAR-8 ovarian
  TGI: > 100 µM
T-47D breast
  TGI: > 100 µM
SNB-75 CNS
  TGI: > 100 µM
SW-620 colon
  TGI: > 100 µM
A549 NSCLC
  TGI: > 100 µM
NCI-H23 lung
  TGI: > 100 µM
MDA-MB-435
  TGI: > 100 µM
LOX IMVI melanoma
  TGI: > 100 µM
MDA-N
  TGI: > 100 µM
HCT-15 colon
  TGI: > 100 µM
SK-MEL-2 melanoma
  TGI: 64.8 µM
CAKI-1 renal
  TGI: > 100 µM
BT-549 breast
  TGI: > 100 µM
